Source: ChEMBL document CHEMBL5223154, “9-Demethoxy-medicarpin: A potential bone health supplement for the management of protein deficiency-induced bone loss in growing rats” (2023)
Calls of active or inactive are those of the source. The calls are words filed in the database; no cut-off is given here.

Columns and labels:
[1] = test system: Rattus norvegicus; assay: Effect on protein deficiency diet induced bone loss in Sprague-Dawley rat assessed as change in serum urea level at 1 mg, po supplemented with protein deficient diet for one month followed by compound treatment and measured after 4 weeks; format: functional
[2] = test system: Rattus norvegicus; assay: Effect on protein deficiency diet induced bone loss in Sprague-Dawley rat assessed as increase in bone mineral density at midshaft of femur at 10 mg, po supplemented with protein deficient diet for one month followed by compound treatment and measured after 4 weeks; format: functional, organism-based
[3] = test system: Rattus norvegicus; assay: Effect on protein deficiency diet induced bone loss in Sprague-Dawley rat assessed as increase in bone mineral density at TFSP region of tibia at 10 mg, po supplemented with protein deficient diet for one month followed by compound treatment and measured after 4 weeks; format: functional, organism-based
[4] = test system: Rattus norvegicus; assay: Effect on protein deficiency diet induced bone loss in Sprague-Dawley rat assessed as change in serum albumin level at 1 mg, po supplemented with protein deficient diet for one month followed by compound treatment and measured after 4 weeks; format: functional
[5] = test system: Rattus norvegicus; assay: Effect on protein deficiency diet induced bone loss in Sprague-Dawley rat assessed as change in tibia length at 10 mg, po supplemented with protein deficient diet for one month followed by compound treatment and measured after 4 weeks; format: functional
[6] = test system: Rattus norvegicus; assay: Effect on protein deficiency diet induced bone loss in Sprague-Dawley rat assessed as change in body weight at 1 mg, po supplemented with protein deficient diet for one month followed by compound treatment and measured twice a week for 4 weeks; format: functional
[7] = test system: Rattus norvegicus; assay: Effect on protein deficiency diet induced bone loss in Sprague-Dawley rat assessed as change in femur length at 10 mg, po supplemented with protein deficient diet for one month followed by compound treatment and measured after 4 weeks; format: functional
[8] = test system: Rattus norvegicus; assay: Effect on protein deficiency diet induced bone loss in Sprague-Dawley rat assessed as change in tibia length at 1 mg, po supplemented with protein deficient diet for one month followed by compound treatment and measured after 4 weeks; format: functional
[9] = test system: Rattus norvegicus; assay: Effect on protein deficiency diet induced bone loss in Sprague-Dawley rat assessed as increase in global tibial bone mineral density at 1 mg, po supplemented with protein deficient diet for one month followed by compound treatment and measured after 4 weeks; format: functional, organism-based
[10] = test system: Rattus norvegicus; assay: Effect on protein deficiency diet induced bone loss in Sprague-Dawley rat assessed as change in femur length at 1 mg, po supplemented with protein deficient diet for one month followed by compound treatment and measured after 4 weeks; format: functional
[11] = test system: Rattus norvegicus; assay: Effect on protein deficiency diet induced bone loss in Sprague-Dawley rat assessed as change in phosphate ion level in serum at 1 mg, po supplemented with protein deficient diet for one month followed by compound treatment and measured after 4 weeks; format: functional
[12] = test system: Rattus norvegicus; assay: Effect on protein deficiency diet induced bone loss in Sprague-Dawley rat assessed as change in serum creatinine level at 1 mg, po supplemented with protein deficient diet for one month followed by compound treatment and measured after 4 weeks; format: functional
[13] = test system: Rattus norvegicus; assay: Effect on protein deficiency diet induced bone loss in Sprague-Dawley rat assessed as change in serum TGA level at 10 mg, po supplemented with protein deficient diet for one month followed by compound treatment and measured after 4 weeks; format: functional
[14] = test system: Rattus norvegicus; assay: Effect on protein deficiency diet induced bone loss in Sprague-Dawley rat assessed as increase in bone mineral density at proximal head of tibia at 10 mg, po supplemented with protein deficient diet for one month followed by compound treatment and […]; format: functional, organism-based
[15] = test system: Rattus norvegicus; assay: Effect on protein deficiency diet induced bone loss in Sprague-Dawley rat assessed as change in serum total protein level at 1 mg, po supplemented with protein deficient diet for one month followed by compound treatment and measured after 4 weeks; format: functional
[16] = test system: Rattus norvegicus; assay: Effect on protein deficiency diet induced bone loss in Sprague-Dawley rat assessed as change in serum alkaline phosphatase level at 1 mg, po supplemented with protein deficient diet for one month followed by compound treatment and measured after 4 weeks; format: functional
[17] = test system: Rattus norvegicus; assay: Effect on protein deficiency diet induced bone loss in Sprague-Dawley rat assessed as change in serum albumin level at 10 mg, po supplemented with protein deficient diet for one month followed by compound treatment and measured after 4 weeks; format: functional
[18] = test system: Mesenchymal stem cells; assay: Induction of osteoblast differentiation in bone marrow mesenchymal stem cells isolated from Sprague-Dawley rat model of protein deficiency diet induced bone loss assessed as increase in mineralized nodule formation at 1 to 10 mg, po supplemented with protein deficient diet for one month followed by compound treatment and measured after 4 weeks by Alizarin Red-S staining based analysis; format: functional, organism-based; details: dose 1-10 mg
[19] = test system: Rattus norvegicus; assay: Effect on protein deficiency diet induced bone loss in Sprague-Dawley rat assessed as increase in global tibial bone mineral density at 10 mg, po supplemented with protein deficient diet for one month followed by compound treatment and measured after 4 weeks; format: functional, organism-based
[20] = test system: Rattus norvegicus; assay: Effect on protein deficiency diet induced bone loss in Sprague-Dawley rat assessed as change in serum creatinine level at 10 mg, po supplemented with protein deficient diet for one month followed by compound treatment and measured after 4 weeks; format: functional
[21] = test system: Rattus norvegicus; assay: Effect on protein deficiency diet induced bone loss in Sprague-Dawley rat assessed as increase in L4 vertebral bone mineral density at 1 to 10 mg, po supplemented with protein deficient diet for one month followed by compound treatment and measured after 4 weeks; format: functional, organism-based; details: dose 1-10 mg
[22] = test system: Rattus norvegicus; assay: Effect on protein deficiency diet induced bone loss in Sprague-Dawley rat assessed as increase in L3 vertebral bone mineral density at 1 to 10 mg, po supplemented with protein deficient diet for one month followed by compound treatment and measured after 4 weeks; format: functional, organism-based; details: dose 1-10 mg
[23] = test system: Rattus norvegicus; assay: Effect on protein deficiency diet induced bone loss in Sprague-Dawley rat assessed as increase in bone mineral density at neck of femur at 10 mg, po supplemented with protein deficient diet for one month followed by compound treatment and measured after 4 weeks; format: functional, organism-based
[24] = test system: Rattus norvegicus; assay: Effect on protein deficiency diet induced bone loss in Sprague-Dawley rat assessed as increase in global vertebral bone mineral density at 1 to 10 mg, po supplemented with protein deficient diet for one month followed by compound treatment and measured after 4 weeks; format: functional, organism-based; details: dose 1-10 mg
[25] = test system: Rattus norvegicus; assay: Effect on protein deficiency diet induced bone loss in Sprague-Dawley rat assessed as change in phosphate ion level in serum at 10 mg, po supplemented with protein deficient diet for one month followed by compound treatment and measured after 4 weeks; format: functional
[26] = test system: Rattus norvegicus; assay: Effect on protein deficiency diet induced bone loss in Sprague-Dawley rat assessed as increase in L2 vertebral bone mineral density at 1 to 10 mg, po supplemented with protein deficient diet for one month followed by compound treatment and measured after 4 weeks; format: functional, organism-based; details: dose 1-10 mg
[27] = test system: Rattus norvegicus; assay: Effect on protein deficiency diet induced bone loss in Sprague-Dawley rat assessed as change in serum TGA level at 1 mg, po supplemented with protein deficient diet for one month followed by compound treatment and measured after 4 weeks; format: functional
[28] = test system: Rattus norvegicus; assay: Effect on protein deficiency diet induced bone loss in Sprague-Dawley rat assessed as change in serum alkaline phosphatase level at 10 mg, po supplemented with protein deficient diet for one month followed by compound treatment and measured after 4 weeks; format: functional
[29] = test system: Rattus norvegicus; assay: Effect on protein deficiency diet induced bone loss in Sprague-Dawley rat assessed as change in body weight at 10 mg, po supplemented with protein deficient diet for one month followed by compound treatment and measured twice a week for 4 weeks; format: functional
[30] = test system: Rattus norvegicus; assay: Effect on protein deficiency diet induced bone loss in Sprague-Dawley rat assessed as increase in bone mineral density at TFSP region of tibia at 1 mg, po supplemented with protein deficient diet for one month followed by compound treatment and measured after 4 weeks; format: functional, organism-based
[31] = test system: Rattus norvegicus; assay: Effect on protein deficiency diet induced bone loss in Sprague-Dawley rat assessed as change in serum urea level at 10 mg, po supplemented with protein deficient diet for one month followed by compound treatment and measured after 4 weeks; format: functional
[32] = test system: Rattus norvegicus; assay: Effect on protein deficiency diet induced bone loss in Sprague-Dawley rat assessed as increase in bone mineral density at proximal head of tibia at 1 mg, po supplemented with protein deficient diet for one month followed by compound treatment and measured after 4 weeks; format: functional, organism-based
[33] = test system: Rattus norvegicus; assay: Effect on protein deficiency diet induced bone loss in Sprague-Dawley rat assessed as increase in global femur bone mineral density at 10 mg, po supplemented with protein deficient diet for one month followed by compound treatment and measured after 4 weeks; format: functional, organism-based
[34] = test system: Rattus norvegicus; assay: Effect on protein deficiency diet induced bone loss in Sprague-Dawley rat assessed as increase in L1 vertebral bone mineral density at 1 to 10 mg, po supplemented with protein deficient diet for one month followed by compound treatment and measured after 4 weeks; format: functional, organism-based; details: dose 1-10 mg
[35] = test system: Rattus norvegicus; assay: Effect on protein deficiency diet induced bone loss in Sprague-Dawley rat assessed as change in serum total protein level at 10 mg, po supplemented with protein deficient diet for one month followed by compound treatment and measured after 4 weeks; format: functional

Oc1ccc2c(c1)OCC1c3ccccc3OC21 (stereo not given)
Activity [1]: 11.3 mmol/L
Activity [2]: Active
Activity [3]: Active
Activity [4]: 1.11 g/dL
Activity [5]: 2.8 cm
Activity [6]: 74.03 g
Activity [7]: 2.39 cm
Activity [8]: 2.647 cm
Activity [9]: inactive
Activity [10]: 2.25 cm
Activity [11]: 4.346 mg/dL
Activity [12]: 0.2633 mg/dL
Activity [13]: 23.9333 mg/dL
Activity [14]: Active
Activity [15]: 48.9 g/L
Activity [16]: 377.2 IU/L
Activity [17]: 1.45 g/dL
Activity [18]: Active
Activity [19]: Active
Activity [20]: 0.2567 mg/dL
Activity [21]: Active
Activity [22]: Active
Activity [23]: Active
Activity [24]: Active
Activity [25]: 7.576 mg/dL
Activity [26]: Active
Activity [27]: 17.8333 mg/dL
Activity [28]: 512.55 IU/L
Activity [29]: 79.7 g
Activity [30]: inactive
Activity [31]: 14.1333 mmol/L
Activity [32]: inactive
Activity [33]: Active
Activity [34]: Active
Activity [35]: 64.7 g/L
